Results reported in patent publication US8680058B2, “Selectively targeted antimicrobial peptides and the use thereof” (priority 2006, dated 2014).
No end group written: not given here.

Tests used:
[1] = tested on: S. mutans biofilms; assay: Single-species biofilm regrowth after peptide exposure, S. mutans; assay type: cell-based, Streptococcus mutans; details: 25 μM peptide, 1 min exposure
Method: (§1) 1.5 Examination of antimicrobial activity against single-species biofilms. To initiate biofilm formation, ˜1×10^7 bacteria per well (from overnight cultures) were seeded in TH medium (100 μL) to a 96-well flat-bottom plate. For all streptococci except S. mutans, the medium was supplemented with 0.5% (w/v) mannose and glucose. S. mutans UA159 biofilms were grown with 0.5% (w/v) sucrose. Plates were then centrifuged briefly to pellet the cells, and bacteria were incubated for 3-4 hours at 37° C. for biofilm formation. After incubation, the supernatant was carefully removed and biofilms were treated with 25 μM peptide in 1×PBS or 1×PBS alone for 1 min. The peptide solution was then removed and 100 μL TH was added to further dilute any remaining peptide. To minimize biofilm loss, cells were briefly centrifuged after TH addition, after which the supernatants were removed and fresh medium plus appropriate sugars were returned. Cells were then incubated anaerobically at 37° C. and biofilm growth was monitored over time by measuring absorbance at OD600 with a microplate spectrophotometer (Benchmark Plus, BioRad).

[2] = tested on: S. sanguinis biofilms; assay: Single-species biofilm regrowth after peptide exposure, S. sanguinis; assay type: cell-based; details: 25 μM peptide, 1 min exposure
Method: as §1

[3] = tested on: S. mutans JM11 within a multi-species biofilm; assay: Multi-species biofilm in saliva, luciferase readout of S. mutans JM11; assay type: cell-based, Streptococcus mutans; details: 25 μM in saliva, 5 min exposure
Method: 1.6 Evaluation of antimicrobial activity against bacterial biofilm in saliva. For these experiments, we employed methods similar to those previously described (Bleher et al., 2003). A day prior to the assay, saliva was collected and pooled from 5 adult volunteers in the laboratory, diluted 1:4 in TH broth and centrifuged 2,000×g for 10 min. The supernatant was then filter sterilized (0.2 μm filter, Nunc) and stored at 4° C. A portion of pooled saliva was also diluted 1:2 in 1×PBS and processed as before. On the day of the assay, overnight cultures of JM11 and other oral streptococci were normalized to OD600 1.0 and ˜3×10^6 cfu/mL of each species was added to 10 mL of the TH-diluted saliva. […] At each time point, total biofilm growth was measured by reading absorbance at OD600, and the health of S. mutans within the population examined by relative luciferase expression (relative light unit, (RLU) production), as described previously (Merritt et al., 2005). […] RLU production was measured using a TD 20/20 luminometer (Turner Biosystems) and reported values were obtained from the average of 3 independent samples. […]
1.9 C16G2 can selectively eliminate S. mutans from a mixed species biofilm. […] The mixed-species biofilms were formed with saliva, and then peptides (25 μM) suspended in saliva were added for 5 min and removed, and the post-treatment growth of the biofilm was further monitored. […]

With “TFFRLFNRSFTQALGKGGGKNLRIIRKGIHIIKKY-NH2 [Peptide C16G2]” the “biofilm re-growth after treatment (OD600)” value [1] was “severely inhibited”, the “biofilm re-growth after treatment (OD600)” value [2] was “grew similarly to untreated biofilms” and the “S. mutans population within mixed-species biofilm (luciferase activity, RLU/OD600)” value [3] was “dramatically reduce the S. mutans population”. The “duration of selective inhibition of S. mutans growth within multi-species biofilm” value [3] was ≥ 2 h.
